Series [1] concerns GM3 expression in C32 human melanoma cells. Put plainly: GM3 fluorescent-linked immunosorbent assay (FLISA), C32. It counts as cell-based. Conditions: 48 hours. The text has this:
(§1) Inhibition of glucosylceramide synthase activity can be measured with one or more assays. A first assay is a microsomal assay that directly measures the conversion of ceramide to glucosylceramide by HPLC. Microsomes are a source of glucosylceramide synthase activity in the microsomal assay. A second assay is a cell based, phenotypic assay that monitors cell surface expression of the downstream lipid GM3 by antibody mediated immunofluorescence. Specific protocols are provided below.
(§2) This is a phenotypic assay that measures GM3 expression in B16 mouse melanoma or C32 human melanoma cells following treatment with test compounds. Cell surface GM3 expression is determined by antibody mediated fluorescence.
(§3) Compounds are diluted in media and plated in 384 well plates in DMSO. B16 and C32 cells are assayed at densities of 20,000 cells/ml and 62,500 cells/ml, respectively, per well. Each titration curve contains 10 points that are assayed in duplicate on each test run. The plates are incubated for 48 hours at 37° C., 5% CO2, and are then washed once with TBS. Anti-GM3 antibody is added to each well and the plates are then incubated for an additional one hour at room temperature. Plates are subsequently washed twice and incubated for an additional hour with the labeled secondary antibody. Following the final incubation, the plates are washed twice and the fluorescence at λex=D640/20 nm and λem=657 nm is detected on a fluorescent reader.
(§4) The results of the microsomal assays are expressed as “GCS IC50,” which represents the concentration of the compound causing 50% inhibition of glucosylceramide synthase activity. The results of the cell-based assays are expressed as “GM3 B16 IC50” or “GM3 C32 IC50” for the B16 assay and the C32 assay, respectively. These values represent the concentration of the compound causing 50% inhibition of GM3 expression on the cell surface.

Series [2] relates to GM3 expression in B16 mouse melanoma cells. Briefly: GM3 fluorescent-linked immunosorbent assay (FLISA), B16. It counts as cell-based. Conditions: 48 hours.
Source text: as §1, §2, §3, §4

The target of series [3] is glucosylceramide synthase (Homo sapiens (Human), UniProt Q16739). Briefly: Glucosylceramide synthase activity microsomal assay. It counts as biochemical. The note with it: microsomes from A375 human melanoma cells; read-out: GCS IC50.
Source text: as §1
An enzyme assay using microsomes as a source of glucosylceramide synthase activity. Fluorescent ceramide substrate is delivered to membrane-bound enzyme as a complex with albumin. After reaction, ceramide and glucosylceramide are separated and quantitated by reverse-phase HPLC with fluorescence detection. Enzymatic activity is assessed using a fluorescent labeled substrate and microsomes as a source of glucosylceramide synthase. C6-NBD-Ceramide is complexed with albumin for delivery to microsomes that are isolated according to the procedure described below. The final concentration of C6-NBD-Ceramide in the stock solution is 0.5 mM; the final concentration of BSA is 0.5 mM. Separation and quantitation of substrate and product (glucosylceramide) are achieved by reverse-phase HPLC with fluorescence detection.
Microsomes are isolated from A375 human melanoma cells. Eight to ten million cells are harvested by trypsinization and washed with ice cold PBS. Cells are resuspended in ice-cold lysis buffer containing protease inhibitors. Cell lysate is sonicated on ice using a probe sonicator. After sonication, the cell lysate is separated from debris by centrifugation at 10,000 g for 10 minutes at 4° C. The supernatant is removed and cleared by additional centrifugation at 100,000 g for 1 hour at 4° C. The pellet is then resuspended in the lysis buffer, aliquoted, and stored at −80° C. prior to use.
The reaction is stopped by the addition of 150 μL of 100 μM C8-ceramide in 50% aq. isopropanol; 10 μL of the final mix is analyzed on HPLC (with fluorescence detector). […] Fluorescence is detected with λex=470 nm and λem=530 nm. […] Both peaks are separated from each other and the baseline and were integrated automatically by the HPLC software. The percent conversion of substrate to product is used as the readout for inhibitor testing. […]

The test system of series [4] is neurological manifestations of GD-3. Conditions: cited from earlier work.

Sequence of glucosylceramide synthase (Q16739 whole entry): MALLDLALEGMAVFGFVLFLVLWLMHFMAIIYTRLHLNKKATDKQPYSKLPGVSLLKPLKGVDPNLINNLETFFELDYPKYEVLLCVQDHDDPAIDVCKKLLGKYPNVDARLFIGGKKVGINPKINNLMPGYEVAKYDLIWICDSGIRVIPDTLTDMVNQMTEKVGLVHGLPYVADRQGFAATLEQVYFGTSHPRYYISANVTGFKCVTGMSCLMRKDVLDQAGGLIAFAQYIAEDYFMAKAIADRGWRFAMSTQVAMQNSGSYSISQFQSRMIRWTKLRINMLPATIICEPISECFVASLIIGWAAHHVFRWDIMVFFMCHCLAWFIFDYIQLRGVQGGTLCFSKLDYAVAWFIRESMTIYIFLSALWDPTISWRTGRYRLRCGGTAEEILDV

Broadly, the IC50 is the concentration needed to halve the response being measured. Take `CC(C)(NC(=O)OC1CN2CCC1CC2)c1cccc(-c2ccc(F)cc2)c1` (centres unmarked) [Compound 1, Quinuclidin-3-yl (2-(4′-fluoro-[1,1′-biphenyl]-3-yl)propan-2-yl)carbamate]: the IC50 in series [1] is 2.1 µM; in series [2], 15.6 µM; in series [3], 1.9 µM.

Turning to `COCCOc1ccc(-c2ccc(C(C)(C)NC(=O)O[C@@H]3CN4CCC3CC4)cc2)cc1` [Compound 3, (S)-quinuclidin-3-yl (2-(4′-(2-methoxyethoxy)-[1,1′-biphenyl]-4-yl)propan-2-yl)carbamate], the results for the IC50 in series [1], in series [2] and in series [3] were 1.31 µM, 43.7 µM and 4.14 µM, respectively.

In the case of `CC(C)(NC(=O)OC1CN2CCC1CC2)c1cccc(-c2ccccc2)c1` (centres unmarked) [Compound 4, 1-azabicyclo[2.2.2]oct-3-yl [2-(biphenyl-3-yl)propan-2-yl]carbamate], the IC50 in series [1] was 0.8 µM; in series [2] it was 11.6 µM; in series [3] it was 1.5 µM.

On to `CC(C)(NC(=O)O[C@@H]1CN2CCC1CC2)c1ccc(-c2ccccc2)cc1` [Compound 5, (S)-quinuclidin-3-yl 2-(biphenyl-4-yl)propan-2-ylcarbamate], for which the figures for the IC50 in series [1], in series [2] and in series [3] were 0.3 µM, 19.3 µM and 1.2 µM, respectively.

On to `O=C(NC1(c2ccc(-c3ccccc3)cc2)CC1)OC1CN2CCC1CC2` (centres unmarked) [Compound 6, Quinuclidin-3-yl 1-(biphenyl-4-yl)cyclopropylcarbamate], for which the IC50 amounted to 0.6 µM in series [1], 18.1 µM in series [2] and 2.8 µM in series [3].

Consider `O=C(NC1(c2ccc(-c3ccc(F)cc3)cc2)CC1)O[C@@H]1CN2CCC1CC2` [Compound 7, (S)-quinuclidin-3-yl 1-(4′-fluorobiphenyl-4-yl)cyclopropylcarbamate], for which the IC50 stood at 0.4 µM in series [1], 8.1 µM in series [2] and 1.4 µM in series [3].

As for `O=C(NC1(c2ccc(-c3ccc(F)cc3F)cc2)CC1)O[C@@H]1CN2CCC1CC2` [Compound 8, (S)-1-azabicyclo[2.2.2]oct-3-yl [1-(2′,4′-difluorobiphenyl-4-yl)cyclopropyl]carbamate], the IC50 in series [1] stood at 0.4 µM; in series [2], 7.5 µM; in series [3] it was 1 µM.

On to `COc1ccc(-c2ccc(C3(NC(=O)OC4CN5CCC4CC5)CC3)cc2)cc1` (centres unmarked) [Compound 9, 1-azabicyclo[2.2.2]oct-3-yl [1-(4′-methoxybiphenyl-4-yl)cyclopropyl]carbamate], for which the IC50 came out at 0.4 µM in series [1], 16.8 µM in series [2] and 1.4 µM in series [3].

With `CC(C)(NC(=O)OC1CN2CCC1CC2)c1csc(-c2ccc(F)cc2)c1` (centres unmarked) [Compound 10, Quinuclidin-3-yl 2-(5-(4-fluorophenyl)thiophen-3-yl)propan-2-ylcarbamate], the IC50 in series [1] stood at 2.2 µM; in series [2], 21.3 µM; in series [3], 6.4 µM.

With `CC(C)(NC(=O)O[C@@H]1CN2CCC1CC2)c1cc(-c2ccc(F)cc2)ns1` [Compound 11, (S)-quinuclidin-3-yl 2-(3-(4-fluorophenyl)isothiazol-5-yl)propan-2-ylcarbamate], the IC50 in series [1] is 1.8 µM; in series [2], 81.9 µM; in series [3] it was 14.9 µM.

Take `CC(C)(NC(=O)O[C@@H]1CN2CCC1CC2)c1nc(-c2ccc(F)cc2)cs1` [Compound 12, (S)-quinuclidin-3-yl 2-(4-(4-fluorophenyl)thiazol-2-yl)propan-2-ylcarbamate]: the results for the IC50 in series [1], in series [2] and in series [3] were 3.7 µM, 87.8 µM and 20.3 µM, respectively.

For the molecule `COCCOc1ccc(-c2ccc(C(C)(C)NC(=O)OC3CN4CCC3CC4)cc2)cc1` (centres unmarked) [Compound 13, Quinuclidin-3-yl (2-(4′-(2-methoxyethoxy)-[1,1′-biphenyl]-4-yl)propan-2-yl)carbamate], the figures for the IC50 in series [1], in series [2] and in series [3] were 0.7 µM, 38.6 µM and 3.5 µM, respectively.

Regarding `COCCOc1cccc(-c2ccc(C(C)(C)NC(=O)O[C@@H]3CN4CCC3CC4)cc2)c1` [Compound 14, (S)-quinuclidin-3-yl (2-(3′-(2-methoxyethoxy)-[1,1′-biphenyl]-4-yl)propan-2-yl)carbamate], the IC50 in series [1] is 5.3 µM; in series [2] it was 110 µM; in series [3], 10.4 µM.

Consider `COCCOc1ccc(-c2cccc(C(C)(C)NC(=O)OC3CN4CCC3CC4)c2)cc1` (centres unmarked) [Compound 15, Quinuclidin-3-yl (2-(4′-(2-methoxyethoxy)-[1,1′-biphenyl]-3-yl)propan-2-yl)carbamate], for which the figures for the IC50 in series [1], in series [2] and in series [3] were 4.9 µM, 29.5 µM and 26.7 µM, respectively.

Take `COCCCOc1ccc(-c2ccc(C(C)(C)NC(=O)OC3CN4CCC3CC4)cc2)cc1` (centres unmarked) [Compound 16, Quinuclidin-3-yl (2-(4′-(3-methoxypropoxy)-[1,1′-biphenyl]-4-yl)propan-2-yl)carbamate]: the IC50 in series [1] is 1.6 µM; in series [2], 66.6 µM; in series [3], 2.4 µM.

On to `CC(C)(NC(=O)OC1CN2CCC1CC2)c1ccc(-c2ccc(CO)cc2)cc1` (centres unmarked) [Compound 17, Quinuclidin-3-yl (2-(4′-(hydroxymethyl)-[1,1′-biphenyl]-4-yl)propan-2-yl)carbamate], for which the values for the IC50 in series [1], in series [2] and in series [3] were 21.6 µM, 879 µM and 454 µM, respectively.

Regarding `CC(C)(NC(=O)OC1CN2CCC1CC2)c1ccc(-c2ccc(CCO)cc2)cc1` (centres unmarked) [Compound 18, Quinuclidin-3-yl (2-(4′-(2-hydroxyethyl)-[1,1′-biphenyl]-4-yl)propan-2-yl)carbamate], the IC50 in series [1] is 22.3 µM; in series [2], 656 µM; in series [3], 148 µM.

`COCCCOc1ccc(-c2nc(C(C)(C)NC(=O)OC3CN4CCC3CC4)cs2)cc1` (centres unmarked) [Compound 19, Quinuclidin-3-yl (2-(2-(4-(3-methoxypropoxy)phenyl)thiazol-4-yl)propan-2-yl)carbamate]: the results for the IC50 in series [1], in series [2] and in series [3] were 42.6 µM, 197 µM and 170 µM, respectively.

Take `COCCOc1ccc(-c2nc(C(C)(C)NC(=O)OC3CN4CCC3CC4)cs2)cc1` (centres unmarked) [Compound 20, Quinuclidin-3-yl (2-(2-(4-(2-methoxyethoxy)phenyl)thiazol-4-yl)propan-2-yl)carbamate]: the IC50 in series [1] amounted to 19.8 µM; in series [2], 106 µM; in series [3], 360 µM.

In the case of `COCCOc1ccc(-c2ccc(C(C)(C)NC(=O)OC3CN4CCC3CC4)nc2)cc1` (centres unmarked) [Compound 21, Quinuclidin-3-yl 2-(5-(4-(2-methoxyethoxy)phenyl)pyridin-2-yl)propan-2-ylcarbamate], the IC50 in series [1] is 11.1 µM; in series [2] it was 266 µM; in series [3], 50.6 µM.

Consider `CC(C)(NC(=O)OC1CN2CCC1CC2)c1ccc(-c2ccc(OCCCC#N)cc2)cc1` (centres unmarked) [Compound 22, Quinuclidin-3-yl (2-(4′-(3-cyanopropoxy)-[1,1′-biphenyl]-4-yl)propan-2-yl)carbamate], for which the values for the IC50 in series [1], in series [2] and in series [3] were 3.2 µM, 86.5 µM and 9.6 µM, respectively.

Regarding `CC(C)(NC(=O)OC1CN2CCC1CC2)c1ccc(-c2ccc(OCC#N)cc2)cc1` (centres unmarked) [Compound 23, Quinuclidin-3-yl (2-(4′-(cyanomethoxy)-[1,1′-biphenyl]-4-yl)propan-2-yl)carbamate], the IC50 was found to be 0.8 µM in series [1], 47.7 µM in series [2] and 2.6 µM in series [3].

On to `CCCCN1C[C@H](O)[C@@H](O)[C@H](O)[C@H]1CO` [miglustat], for which the “treatment of the neurological manifestations of GD-3” value in series [4] (clinical trials) is listed as “ineffective”. Further, in series [4] (human, in vivo), the “crossing of the blood-brain barrier” value is on record as “does cross the blood-brain barrier”.

Source of the values: patent publication US12083115B2, “Methods for treating neurological symptoms associated with lysosomal storage diseases” (Genzyme Corporation, priority 2020, dated 2024).
